Square brackets hold non-standard residues; d marks the D form. Peptide text beside a SMILES is read from it. * marks the point of attachment. Dolaproine = CO[C@@H]([C@@H]1CCCN1)[C@@H](C)C(=O)O; Dil = CC[C@H](C)[C@H](NC)[C@@H](CC(=O)O)OC; X1 = C[C@@H](N*)[C@@H](O)c1ccccc1; NMeV = CN[C@H](C(=O)O)C(C)C
Tests used:
Test in all cases: In vitro cytotoxicity (cell proliferation inhibition), SRB dye or Cell titer glo
Format in all cases: cell-based, human
BxPC-3 = conditions: BxPC-3, 144 hours
Experimental: (§1) The cell proliferation inhibitory activity of the ADC produced according to <Example 2> and the drug alone included in the ADC against cancer cell lines were measured.
(§2) Specifically, human pancreatic cancer cell lines (BxPC-3, Capan-1, and PATU-8988s), breast cancer cell lines (JIMT-1 and MDA-MB-468), gastric cancer cell lines (NCI-N87, SNU-601, and SNU-620), colon cancer cell lines (HCT15, HT29, DLD-1, SW480, and COLO205), an ovarian cancer cell line (OVCAR-3), prostate cancer cell lines (PC-3 and LNCaP), and non-small cell lung cancer cell lines (NCI-H1781, HCC827, Calu-1, and Calu-3), which are commercially available as cancer cell lines, were used. MMAE as a drug alone included in the ADC prepared according to Example 3 and SG2057 (CAS #: 260417-62-7, MedKoo Biosciences) as a PBD dimer were used. 500 cells/well to 5,000 cells/well of each cancer cell line were seeded into a 96-well plate and cultured for 24 hours, and then each of ADC1, ADC2 and ADC3 produced according to Example 3 and the drugs MMAE and SG2057 alone were treated at a concentration of […] to 100 nM (5-fold serial dilution). After 144 hours, the number of living cells was quantified using a sulforhodamine B (SRB) dye or Cell titer glo.

COLO205 = conditions: COLO205, 144 hours
Experimental: as §1, §2

Calu-1 = conditions: Calu-1, 144 hours
Experimental: as §1, §2

Calu-3 = conditions: Calu-3, 144 hours
Experimental: as §1, §2

Capan-1 = conditions: Capan-1, 144 hours
Experimental: as §1, §2

DLD-1 = conditions: DLD-1, 144 hours
Experimental: as §1, §2

HCC827 = conditions: HCC827, 144 hours
Experimental: as §1, §2

HCT15 = conditions: HCT15, 144 hours
Experimental: as §1, §2

HT29 = conditions: HT29, 144 hours
Experimental: as §1, §2

JIMT-1 = conditions: JIMT-1, 144 hours
Experimental: as §1, §2

LNCaP = conditions: 144 hours
Experimental: as §1, §2

MDA-MB-468 = conditions: MDA-MB-468, 144 hours
Experimental: as §1, §2

NCI-H1781 = conditions: NCI-H1781, 144 hours
Experimental: as §1, §2

NCI-N87 = conditions: NCI-N87, 144 hours
Experimental: as §1, §2

OVCAR-3 = conditions: OVCAR-3, 144 hours
Experimental: as §1, §2

PC-3 = conditions: PC-3, 144 hours
Experimental: as §1, §2

Patu8988S = conditions: 144 hours
Experimental: as §1, §2

SNU-601 = conditions: SNU-601, 144 hours
Experimental: as §1, §2

SNU-620 = conditions: SNU-620, 144 hours
Experimental: as §1, §2

SW480 = conditions: SW480, 144 hours
Experimental: as §1, §2

SMILES | CC50 (BxPC-3) [nM] | CC50 (COLO205) [nM] | CC50 (Calu-1) [nM] | CC50 (Calu-3) [nM] | CC50 (Capan-1) [nM] | CC50 (DLD-1) [nM] | CC50 (HCC827) [nM] | CC50 (HCT15) [nM] | CC50 (HT29) [nM] | CC50 (JIMT-1) [nM] | CC50 (LNCaP) [nM] | CC50 (MDA-MB-468) [nM] | CC50 (NCI-H1781) [nM] | CC50 (NCI-N87) [nM] | CC50 (OVCAR-3) [nM] | CC50 (PC-3) [nM] | CC50 (Patu8988S) [nM] | CC50 (SNU-601) [nM] | CC50 (SNU-620) [nM] | CC50 (SW480) [nM]
CC[C@H](C)[C@@H]([C@@H](CC(=O)N1CCC[C@H]1[C@H](OC)[C@@H](C)C(=O)N[C@H](C)[C@@H](O)c1ccccc1)OC)N(C)C(=O)[C@@H](NC(=O)[C@@H](NC)C(C)C)C(C)C [MMAE, monomethyl auristatin E] (H-[NMeV]V[Dil][Dolaproine]-X1) | 0.606 | 0.628 | 0.971 | 0.4 | 0.52 | 8.88 | 0.674 | 3.87 | 0.33 | 0.154 | 0.551 | 0.64 | 0.208 | 0.725 | 0.304 | 0.946 | 0.334 | 0.268 | 0.651 | 3.83
C=C1C[C@H]2C=Nc3cc(OCCCCCOc4cc5c(cc4OC)C(=O)N4CC(=C)C[C@H]4C=N5)c(OC)cc3C(=O)N2C1 [SG2057] | – | – | – | – | – | 0.05 | – | 0.161 | 0.02 | – | – | – | – | – | – | – | – | – | – | –

— patent publication US20250242043A1, “ANTIBODY-DRUG CONJUGATE COMPRISING ANTIBODY AGAINST HUMAN TROP2 AND USE THEREOF” (priority 2022, published 2025)
